According to US20140187548A1, “6 SUBSTITUTED IMIDAZOPYRAZINES FOR USE AS MPS-1 AND TKK INHIBITORS IN THE TREATMENT OF HYPERPROLIFERATIVE DISORDERS” (BAYER INTELLECTUAL PROPERTY GMBH, priority 2010, published 2014):
pIC50: −log10 of the molar value. Counter-ions that a name gives are not always drawn.

Biological target: T1, human kinase Mps-1 (Homo sapiens, UniProt P33981)
T1 construct: N-terminally GST-tagged human full length recombinant Mps-1 kinase; GST (N); purchased Invitrogen, Karslruhe, Germany PV4071
T1 sequence (P33981 1-857): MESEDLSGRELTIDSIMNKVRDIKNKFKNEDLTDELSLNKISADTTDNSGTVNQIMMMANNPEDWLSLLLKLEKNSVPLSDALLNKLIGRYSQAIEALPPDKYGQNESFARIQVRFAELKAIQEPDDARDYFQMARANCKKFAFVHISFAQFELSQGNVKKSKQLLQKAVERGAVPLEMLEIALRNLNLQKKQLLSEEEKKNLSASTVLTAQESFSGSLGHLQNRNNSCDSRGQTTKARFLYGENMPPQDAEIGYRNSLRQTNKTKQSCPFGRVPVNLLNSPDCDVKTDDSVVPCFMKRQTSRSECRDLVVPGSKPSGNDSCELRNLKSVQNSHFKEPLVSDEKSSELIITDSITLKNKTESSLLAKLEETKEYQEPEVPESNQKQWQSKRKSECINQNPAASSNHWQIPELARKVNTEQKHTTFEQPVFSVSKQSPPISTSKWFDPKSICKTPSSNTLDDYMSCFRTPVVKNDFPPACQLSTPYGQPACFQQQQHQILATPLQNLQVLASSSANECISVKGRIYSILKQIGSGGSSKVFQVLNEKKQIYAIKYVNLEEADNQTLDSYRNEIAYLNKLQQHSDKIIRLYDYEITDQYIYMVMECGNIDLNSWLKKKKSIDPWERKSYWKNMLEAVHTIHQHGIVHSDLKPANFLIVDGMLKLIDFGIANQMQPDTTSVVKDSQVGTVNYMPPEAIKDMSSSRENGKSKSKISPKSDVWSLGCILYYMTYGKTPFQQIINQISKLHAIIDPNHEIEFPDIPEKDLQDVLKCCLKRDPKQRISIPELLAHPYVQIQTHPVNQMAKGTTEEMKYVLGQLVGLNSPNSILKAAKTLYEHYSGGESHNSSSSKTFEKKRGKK
Experiment: Mps-1 kinase assay (TR-FRET)
Format: biochemical
Conditions: N-terminally GST-tagged human full length recombinant Mps-1; 10 μM ATP; 1 μM peptide substrate; 15 min pre-incubation; 60 min at 22° C.
Method in brief: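 N-terminally GST-tagged full-length recombinant human Mps-1, about 1 nM final, phosphorylates a biotinylated peptide. Product detected by TR-FRET from Eu-anti-phospho-Ser/Thr antibody to streptavidin-XLent after 1 h at 22° C.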

| SMILES | pIC50 |
| --- | --- |
| O=C(NC1CC1)c1ccc(-c2cnc3c(NCCCCO)nc(-c4ccccc4)cn23)cc1 [Example 2-78, N-cyclopropyl-4-{8-[(4-hydroxybutyl)amino]-6-phenylimidazo[1,2-a]pyrazin-3-yl}benzamide] | 8.96 |
| NCCCCCNc1nc(-c2ccccc2)cn2c(-c3ccc(C(=O)NC4CC4)cc3)cnc12 [Example 2-79, 4-{8-[(5-Aminopentyl)amino]-6-phenylimidazo[1,2-a]pyrazin-3-yl}-N-cyclopropylbenzamide] | 8.49 |
| O=C(NC1CC1)c1ccc(-c2cnc3c(NCCOCCO)nc(-c4ccccc4)cn23)cc1 [Example 2-80, N-cyclopropyl-4-(8-{[2-(2-hydroxyethoxy)ethyl]amino}-6-phenylimidazo[1,2-a]pyrazin-3-yl)benzamide] | 8.21 |
| O=C(NC1CC1)c1ccc(-c2cnc3c(NC[C@@H](O)CO)nc(-c4ccccc4)cn23)cc1 [Example 2-81, N-cyclopropyl-4-(8-{[(2R)-2,3-dihydroxypropyl]amino}-6-phenylimidazo[1,2-a]pyrazin-3-yl)benzamide] | 8.72 |
| O=C(NC1CC1)c1ccc(-c2cnc3c(NC[C@H](O)CO)nc(-c4ccccc4)cn23)cc1 [Example 2-82, N-cyclopropyl-4-(8-{[(2S)-2,3-dihydroxypropyl]amino}-6-phenylimidazo[1,2-a]pyrazin-3-yl)benzamide] | 8.36 |
| O=C(NC1CC1)c1ccc(-c2cnc3c(NCCSC(F)(F)F)nc(-c4ccccc4)cn23)cc1 [Example 2-83, N-cyclopropyl-4-[6-phenyl-8-({2-[(trifluoromethyl)sulfanyl]ethyl}amino)imidazo[1,2-a]pyrazin-3-yl]benzamide] | 8.27 |
| NCCCCCCNc1nc(-c2ccccc2)cn2c(-c3ccc(C(=O)NC4CC4)cc3)cnc12 [Example 2-84, 4-{8-[(6-Aminohexyl)amino]-6-phenylimidazo[1,2-a]pyrazin-3-yl}-N-cyclopropylbenzamide] | 8.80 |
| O=C(NC1CC1)c1ccc(-c2cnc3c(NCC(F)(F)F)nc(-c4ccccc4)cn23)cc1 [Example 2-85, N-cyclopropyl-4-{6-phenyl-8-[(2,2,2-trifluoroethyl)amino]imidazo[1,2-a]pyrazin-3-yl}benzamide] | 8.55 |
| O=C(NC1CC1)c1ccc(-c2cnc3c(NCCOCC(F)(F)F)nc(-c4ccccc4)cn23)cc1 [Example 2-88, N-cyclopropyl-4-(6-phenyl-8-{[2-(2,2,2-trifluoroethoxy)ethyl]amino}imidazo[1,2-a]pyrazin-3-yl)benzamide] | 8.44 |
| CC(C)CNc1nc(-c2ccccc2)c(Cl)n2c(-c3ccc(C(=O)NC4CC4)cc3)cnc12 [Example 3-1, 4-{5-chloro-8-[(2-methylpropyl)amino]-6-phenylimidazo[1,2-a]pyrazin-3-yl}-N-cyclopropylbenzamide] | 7.97 |
| CC(C)CNc1nc(-c2ccccc2)c(Br)n2c(-c3ccc(C(=O)NC4CC4)cc3)cnc12 [Example 4-1, 4-{5-bromo-8-[(2-methylpropyl)amino]-6-phenylimidazo[1,2-a]pyrazin-3-yl}-N-cyclopropylbenzamide] | 7.58 |
| CC(C)CNc1nc(-c2ccccc2)c(F)n2c(-c3ccc(C(=O)NC4CC4)cc3)cnc12 [Example 5-1, N-cyclopropyl-4-{5-fluoro-8-[(2-methylpropyl)amino]-6-phenylimidazo[1,2-a]pyrazin-3-yl}benzamide] | 7.17 |
| CC(C)CNc1nc(-c2ccc(CCO)cc2)cn2c(-c3ccc(C(=O)NC4CC4)cc3)cnc12 [Example 6-1, N-cyclopropyl-4-{6-[4-(2-hydroxyethyl)phenyl]-8-(isobutylamino)imidazo[1,2-a]pyrazin-3-yl}benzamide] | 9.00 |
| CC(C)CNc1nc(-c2ccc(C3CC3)cc2)cn2c(-c3ccc(C(=O)NC4CC4)cc3)cnc12 [Example 7-1, N-cyclopropyl-4-[6-(4-cyclopropylphenyl)-8-(isobutylamino)imidazo[1,2-a]pyrazin-3-yl]benzamide] | 7.50 |
| NCCCNc1nc(-c2ccccc2)cn2c(-c3ccc(C(=O)NC4CC4)cc3)cnc12 [Example 8-1, 4-{8-[(3-Aminopropyl)amino]-6-phenylimidazo[1,2-a]pyrazin-3-yl}-N-cyclopropylbenzamide hydrochloride] | 7.68 |

Next, values leading:

| pIC50 | SMILES |
| --- | --- |
| 8.47 | O=C(NC1CC1)c1ccc(-c2cnc3c(NCCCOC[C@@H](O)CO)nc(-c4ccccc4)cn23)cc1 [Example 9-1, N-cyclopropyl-4-{8-[(3-{[(2S)-2,3-dihydroxypropyl]oxy}propyl)amino]-6-phenylimidazo[1,2-a]pyrazin-3-yl}benzamide] |
| 8.44 | Cc1cc(-c2cnc3c(NCCC(F)(F)F)nc(-c4ccc(F)cc4)cn23)ccc1C(=O)NC1CC1 [Example 10-1, N-cyclopropyl-4-{6-(4-fluorophenyl)-8-[(3,3,3-trifluoropropyl)amino]imidazo[1,2-a]pyrazin-3-yl}-2-methylbenzamide] |
| 8.04 | Cc1cc(-c2cnc3c(NCC4CCCO4)nc(-c4ccc(F)cc4)cn23)ccc1C(=O)NC1CC1 (centres unmarked) [Example 10-2, N-cyclopropyl-4-{6-(4-fluorophenyl)-8-[(tetrahydrofuran-2-ylmethyl)amino]imidazo [1,2-a]pyrazin-3-yl}-2-methylbenzamide] |
| 8.29 | Cc1cc(-c2cnc3c(NCC(C)C)nc(-c4ccc(F)cc4)cn23)ccc1C(=O)NC1CC1 [Example 10-3, N-cyclopropyl-4-{6-(4-fluorophenyl)-8-[(2-methylpropyl)amino]imidazo[1,2-a]pyrazin-3-yl}-2-methylbenzamide] |
| 8.32 | Cc1cc(-c2cnc3c(NCCC(C)CO)nc(-c4ccc(F)cc4)cn23)ccc1C(=O)NC1CC1 (centres unmarked) [Example 10-5, N-cyclopropyl-4-{6-(4-fluorophenyl)-8-[(4-hydroxy-3-methylbutyl)amino]imidazo[1,2-a]pyrazin-3-yl}-2-methyl-benzamide] |
| 8.27 | Cc1cc(-c2cnc3c(NCC4CCC(C)(O)CC4)nc(-c4ccc(F)cc4)cn23)ccc1C(=O)NC1CC1 (centres unmarked) [Example 10-7, N-cyclopropyl-4-[6-(4-fluorophenyl)-8-{[(4-hydroxy-4-methylcyclo-hexyl)methyl]amino}imidazo[1,2-a]pyrazin-3-yl]-2-methylbenzamide] |
| 6.92 | Cc1cc(-c2cnc3c(NCC4CCN(C)C4)nc(-c4ccc(F)cc4)cn23)ccc1C(=O)NC1CC1 (centres unmarked) [Example 10-8, N-cyclopropyl-4-[6-(4-fluorophenyl)-8-{[(1-methylpyrrolidin-3-yl)methyl]amino}imidazo [1,2-a]pyrazin-3-yl]-2-methylbenzamide] |
| 7.20 | CCN1CCC(CNc2nc(-c3ccc(F)cc3)cn3c(-c4ccc(C(=O)NC5CC5)c(C)c4)cnc23)C1 (centres unmarked) [Example 10-9, N-cyclopropyl-4-[8-{[(1-ethylpyrrolidin-3-yl)methyl]amino}-6-(4-fluorophenyl)imidazo [1,2-a]pyrazin-3-yl]-2-methylbenzamide] |
| 7.78 | Cc1cc(-c2cnc3c(NCCC4CC4)nc(-c4ccc(F)cc4)cn23)ccc1C(=O)NC1CC1 [Example 10-10, N-cyclopropyl-4-{8-[(2-cyclopropylethyl)amino]-6-(4-fluorophenyl)imidazo [1,2-a]pyrazin-3-yl}-2-methylbenzamide] |
| 8.48 | Cc1cc(-c2cnc3c(NCC4CCOC4)nc(-c4ccc(F)cc4)cn23)ccc1C(=O)NC1CC1 (centres unmarked) [Example 10-11, N-cyclopropyl-4-{6-(4-fluorophenyl)-8-[(tetrahydrofuran-3-yl-methyl)amino]imidazo [1,2-a]pyrazin-3-yl}-2-methylbenzamide] |
| 8.15 | Cc1cc(-c2cnc3c(NCCCC(C)O)nc(-c4ccc(F)cc4)cn23)ccc1C(=O)NC1CC1 (centres unmarked) [Example 10-12, N-cyclopropyl-4-{6-(4-fluorophenyl)-8-[(4-hydroxypentyl)amino]imidazo[1,2-a]pyrazin-3-yl}-2-methylbenzamide] |
| 8.14 | Cc1cc(-c2cnc3c(NCC4CC(=O)N(C)C4)nc(-c4ccc(F)cc4)cn23)ccc1C(=O)NC1CC1 (centres unmarked) [Example 10-13, N-cyclopropyl-4-[6-(4-fluorophenyl)-8-{[(1-methyl-5-oxopyrrolidin-3-yl)methyl]amino}imidazo[1,2-a]pyrazin-3-yl]-2-methylbenzamide] |
| 8.48 | Cc1cc(-c2cnc3c(NCC4CCOCC4)nc(-c4ccc(F)cc4)cn23)ccc1C(=O)NC1CC1 [Example 10-14, N-cyclopropyl-4-{6-(4-fluorophenyl)-8-[(tetra-hydro-2H-pyran-4-ylmethyl)amino]imidazo [1,2-a]pyrazin-3-yl}-2-methylbenzamide] |
| 8.27 | CCC(C)c1cn2c(-c3ccc(C(=O)NC4CC4)cc3)cnc2c(NCC(C)C)n1 (centres unmarked) [Example 11-1, 4-{6-(butan-2-yl)-8-[(2-methylpropyl)amino]imidazo[1,2-a]pyrazin-3-yl}-N-cyclopropylbenzamide] |
